Test systems include A498 renal; HCT-15 colon; KM12 colon; MALME-3M melanoma; MOLT-4 leukemia; OVCAR-3 ovarian; SF-268 CNS; SK-MEL-5 melanoma; SNB-75 CNS; UO-31 renal.
Holding throughout (test): NCI tumour cell line growth inhibition, 48 h

Molecules are shown by their SMILES.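 Tested at 5 concentrations; 48 h exposure; 96-well plates; endpoints linearly interpolated, else capped at highest concentration. At the TGI there is no net growth.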

For the molecule `COC(=O)C1=C(OC(=O)/C(=C/c2ccc(Cl)cc2)c2ccccc2)C(C(=O)OC)[C@@]2(O)[C@@H](C(=O)OC)[C@H](C)C[C@@H]1[C@@H]2C(=O)OC` (stereo not given in full), the TGI in the experiment on A498 renal, in the experiment on HCT-15 colon, in the experiment with KM12 colon, in the experiment on MALME-3M melanoma, in the experiment on MOLT-4 leukemia and in the experiment on OVCAR-3 ovarian was more than 100 µM each time. Also, the TGI in the experiment with SF-268 CNS, with SK-MEL-5 melanoma, in the experiment with SNB-75 CNS and with UO-31 renal was more than 100 µM each time.

For the molecule `Cc1ccc(S(=O)(=Nc2ccccc2)C(C(C)C)C(C)(C)Cl)cc1` (stereo not given), the TGI was more than 50 µM in the experiment with A498 renal; more than 50 µM with HCT-15 colon; more than 50 µM with KM12 colon; more than 50 µM with MALME-3M melanoma; 32.3 µM in the experiment on MOLT-4 leukemia; more than 50 µM in the experiment on OVCAR-3 ovarian. Moreover, the TGI is more than 50 µM in the experiment on SF-268 CNS, 16.7 µM in the experiment with SK-MEL-5 melanoma, more than 50 µM in the experiment on SNB-75 CNS and more than 50 µM in the experiment with UO-31 renal.

As to `O=C(c1ccc(Cl)cc1)N(Cc1cccnc1)C(=S)N(Cc1cccnc1)C(=O)c1ccc(Cl)cc1`, the TGI in the experiment on A498 renal was 91.5 µM; in the experiment with HCT-15 colon it was more than 100 µM; with KM12 colon it was more than 100 µM; with MALME-3M melanoma it was more than 100 µM; with MOLT-4 leukemia, more than 100 µM; in the experiment on OVCAR-3 ovarian, more than 100 µM. The TGI in the experiment with SF-268 CNS is 79.5 µM; with SK-MEL-5 melanoma it was 90.1 µM; in the experiment on SNB-75 CNS, more than 100 µM; with UO-31 renal, 98.4 µM.

Regarding `c1ccc([C@H]2CN3CCSC3=N2)cc1`, the TGI in the experiment on A498 renal, with HCT-15 colon, with KM12 colon, in the experiment with MALME-3M melanoma, in the experiment on MOLT-4 leukemia and with OVCAR-3 ovarian was more than 100 µM throughout. For the same molecule, the TGI in the experiment with SF-268 CNS, with SK-MEL-5 melanoma, in the experiment on SNB-75 CNS and in the experiment with UO-31 renal was more than 100 µM in each case.

`Cc1cccc2c(N)c3cccc(C(=O)NCC[N+](C)(C)Cc4sc(N5CCOCC5)nc4[N+](=O)[O-])c3nc12`: the TGI in the experiment on A498 renal was 37.3 µM; in the experiment on HCT-15 colon, 13.3 µM; with KM12 colon, 17.6 µM; in the experiment with MALME-3M melanoma, 24.7 µM; in the experiment on MOLT-4 leukemia it was more than 100 µM; in the experiment with OVCAR-3 ovarian, 14.6 µM. The TGI is more than 100 µM in the experiment with SF-268 CNS, more than 100 µM in the experiment on SK-MEL-5 melanoma, 22.7 µM in the experiment on SNB-75 CNS and 35.7 µM in the experiment on UO-31 renal.

For the molecule `O=C1C=CC2(O[C@@H](Cc3ccccc3)[C@H](Cc3ccccc3)O2)C(SC(=O)c2ccccc2)C1` (stereo not given in full), the TGI in the experiment with A498 renal was determined as 16.2 µM; in the experiment with HCT-15 colon it was 1.71 µM; in the experiment with KM12 colon it was 6.82 µM; with MALME-3M melanoma it was 5.06 µM; in the experiment with MOLT-4 leukemia it was 0.651 µM; in the experiment on OVCAR-3 ovarian it was 2.24 µM. In addition, the TGI in the experiment on SF-268 CNS came out at 2.44 µM; with SK-MEL-5 melanoma, 3.16 µM; in the experiment on SNB-75 CNS, 3.41 µM; in the experiment on UO-31 renal it was 1.87 µM.

For `O=C(NCCO)c1c(O)c2ccccc2[nH]c1=O`, the TGI in the experiment with A498 renal, with HCT-15 colon, with KM12 colon, in the experiment with MALME-3M melanoma, in the experiment with MOLT-4 leukemia and with OVCAR-3 ovarian was more than 100 µM in each case. Further, the TGI in the experiment with SF-268 CNS, in the experiment with SK-MEL-5 melanoma, in the experiment with SNB-75 CNS and in the experiment with UO-31 renal was more than 100 µM in each case.

As for `COC(=O)C1(NC(=O)C(N)CC(=O)O)C(C)C1C` (stereo not given), the TGI with A498 renal, with HCT-15 colon, in the experiment on KM12 colon, with MALME-3M melanoma, with MOLT-4 leukemia and with OVCAR-3 ovarian was more than 100 µM each time. Further, the TGI in the experiment on SF-268 CNS, with SK-MEL-5 melanoma, in the experiment with SNB-75 CNS and in the experiment on UO-31 renal was more than 100 µM throughout.

Take `O=c1c2c([nH]c3cc4c(cc13)OCO4)-c1ccccc1CCC2`: the TGI in the experiment on A498 renal, with HCT-15 colon, in the experiment with KM12 colon, in the experiment on MALME-3M melanoma, in the experiment with MOLT-4 leukemia and in the experiment with OVCAR-3 ovarian was more than 50 µM each time. Further, the TGI in the experiment with SF-268 CNS, in the experiment with SK-MEL-5 melanoma, in the experiment with SNB-75 CNS and with UO-31 renal was more than 50 µM in each case.

As to `CC(O)(c1ccccc1)c1nccc2ccccc12` (stereo not given), the TGI in the experiment on A498 renal, in the experiment with HCT-15 colon, with KM12 colon, in the experiment on MALME-3M melanoma, with MOLT-4 leukemia and in the experiment with OVCAR-3 ovarian was more than 100 µM each time. For the same molecule, the TGI with SF-268 CNS, in the experiment with SK-MEL-5 melanoma, with SNB-75 CNS and in the experiment with UO-31 renal was more than 100 µM in each case.

In the case of `Cc1ccccc1NC(=S)N/N=C(/c1ccccc1)c1ccccn1`, the TGI in the experiment with A498 renal was determined as 10.2 µM; in the experiment on HCT-15 colon, 15.8 µM; in the experiment on KM12 colon, 14 µM; with MALME-3M melanoma, 11.8 µM; in the experiment with MOLT-4 leukemia, 3.98 µM; in the experiment on OVCAR-3 ovarian, 10.5 µM. Besides, the TGI in the experiment on SF-268 CNS turned out to be 14.8 µM; in the experiment with SK-MEL-5 melanoma, 3.93 µM; in the experiment with SNB-75 CNS, 17.4 µM; in the experiment on UO-31 renal, 4.25 µM.

These data come from PubChem BioAssay (NCI).
